Patent US7563899B2, “(S)-N-methylnaltrexone” (Progenics Pharmaceuticals, Inc., priority 2005, dated 2009)
Counter-ions that a name gives are not always drawn.

Molecular target: human recombinant kappa opioid receptors (Homo sapiens, UniProt P41145)
Experiment: Radioligand binding assay, kappa opioid receptor
Experimental: Radioligand binding assays were conducted to determine the binding specificity of S-N-methynaltrexone for μ-, κ-, and δ-opiate receptors using methods adapted from scientific literature (Simonin, F et al 1994, Mol. Pharmacol 46:1015-1021; Maguire, P. et al 1992, Eur. J. Pharmacol. 213:219-225; Simonin, F. et al PNAS USA 92(15):1431-1437; Wang, J B 1994, FEBS Lett 338:217-222).

human recombinant kappa opioid receptors, sequence (P41145 whole entry): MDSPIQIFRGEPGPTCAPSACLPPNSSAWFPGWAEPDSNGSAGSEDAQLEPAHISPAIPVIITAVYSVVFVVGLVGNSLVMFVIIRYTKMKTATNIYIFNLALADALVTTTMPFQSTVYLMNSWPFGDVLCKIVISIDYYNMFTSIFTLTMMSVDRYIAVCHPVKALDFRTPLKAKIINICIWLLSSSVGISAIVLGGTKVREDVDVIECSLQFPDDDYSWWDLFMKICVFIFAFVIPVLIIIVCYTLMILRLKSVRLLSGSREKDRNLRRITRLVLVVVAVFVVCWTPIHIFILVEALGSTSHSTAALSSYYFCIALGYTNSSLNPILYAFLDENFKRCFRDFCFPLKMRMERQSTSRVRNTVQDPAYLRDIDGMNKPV

C[N@@+]1(CC2CC2)CC[C@]23c4c5ccc(O)c4OC2C(=O)CCC3(O)C1C5 (stereo partly drawn) [S-MNTX, (S)-N-(cyclopropylmethyl)-noroxymorphone methyl salt] was tested, and the Ki was 1760 nM.
